Measurements reported in patent US8188077B2, “Apoptosis-inducing agents for the treatment of cancer and immune and autoimmune diseases” (Abbott Laboratories, priority 2010, dated 2012).

biological target: T1, Bcl-2 protein (Homo sapiens, UniProt P10415, DELINS35-91DVEENRTEAPEGTESE, form not given); assay: Bcl-2 fluorescence polarization assay (FPA) binding; details: 10 nM Bcl-2 protein, 1 nM fluorescein-labeled BAX peptide, room temperature, read-out: Bcl-2 FPA 11pt Ki
T1 construct: fused on or other part: Bcl-xL (Q07817) residues 29-44 stand in place of Bcl-2's own unstructured loop 35-91; The C-terminal membrane anchor (208-239) is absent
T1 sequence (P10415 with tags, fused parts or gaps with the stated changes): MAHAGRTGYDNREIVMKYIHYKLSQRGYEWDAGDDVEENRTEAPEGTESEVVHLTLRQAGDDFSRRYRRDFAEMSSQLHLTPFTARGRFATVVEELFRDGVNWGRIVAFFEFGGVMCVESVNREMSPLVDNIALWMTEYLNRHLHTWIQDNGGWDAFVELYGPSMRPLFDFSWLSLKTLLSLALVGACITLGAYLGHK
Experimental: Assays for the inhibition of Bcl-2 were performed in 96-well microtiter plates. Compounds of the instant invention were diluted in DMSO to concentrations between […] and 10 pM and introduced into each well of the plate. A mixture totaling 125 µL per well of assay buffer (20 mM phosphate buffer (pH 7.4), 1 mM EDTA, 0.05% PF-68), 10 nM of Bcl-2 protein (prepared according to the procedure described in PNAS 2001, 98, 3012-3017), 1 nM fluorescein-labeled BAX peptide (prepared in-house), and the DMSO solution of the compound of the instant invention was shaken for 2 minutes and placed in a LJL Analyst (LJL Bio Systems, CA. Polarization was measured at room temperature using a continuous Fluorescein lamp (excitation 485 nm, emission 530 nm). Ki values were calculated using Microsoft Excel.

SMILES	Ki
O=C(NS(=O)(=O)c1ccc(NCC2CCOCC2)c([N+](=O)[O-])c1)c1ccc(N2CCN(Cc3ccccc3C3=CC4CC3C3CCCC43)CC2)cc1 (centres unmarked) [Example 23, 4-(4-{2-[2,3,3a,4,7,7a-hexahydro-1H-4,7-methanoinden-5-yl]benzyl}piperazin-1-yl)-N-({3-nitro-4-[(tetrahydro-2H-pyran-4-ylmethyl)amino]phenyl}sulfonyl)benzamide]	< 20 nM
O=C(NS(=O)(=O)c1ccc(NCC2CCOCC2)c([N+](=O)[O-])c1)c1ccc(N2CCN(Cc3ccccc3-c3cn(C45CC6CC(CC(C6)C4)C5)nc3C(=O)N(c3ccccc3)c3ccccc3)CC2)cc1 [Example 24, 1-[adamantan-1-yl]-4-{2-[(4-{4-[({3-nitro-4-[(tetrahydro-2H-pyran-4-ylmethyl)amino]phenyl}sulfonyl)carbamoyl]phenyl}piperazin-1-yl)methyl]phenyl}-N,N-diphenyl-1H-pyrazole-3-carboxamide]	2270 nM
Cc1cc(-c2ccccc2CN2CCN(c3ccc(C(=O)NS(=O)(=O)c4ccc(NCC5CCOCC5)c([N+](=O)[O-])c4)cc3)CC2)c2nc(C34CC5CC(CC(C5)C3)C4)cn2c1 [Example 25, 4-(4-{2-[2-(adamantan-1-yl)-6-methylimidazo[1,2-a]pyridin-8-yl]benzyl}piperazin-1-yl)-N-({3-nitro-4-[(tetrahydro-2H-pyran-4-ylmethyl)amino]phenyl}sulfonyl)benzamide]	979 nM
CC1(C)[C@H]2CC=C(c3ccccc3CN3CCN(c4ccc(C(=O)NS(=O)(=O)c5ccc(NCC6CCOCC6)c([N+](=O)[O-])c5)cc4)CC3)[C@@H]1C2 [Example 27, 4-(4-{2-[(1R,5S)-6,6-dimethylbicyclo[3.1.1]hept-2-en-2-yl]benzyl}piperazin-1-yl)-N-({3-nitro-4-[(tetrahydro-2H-pyran-4-ylmethyl)amino]phenyl}sulfonyl)benzamide]	27.1 nM
CC1C2CC(C=C2c2ccccc2CN2CCN(c3ccc(C(=O)NS(=O)(=O)c4ccc(NCC5CCOCC5)c([N+](=O)[O-])c4)cc3)CC2)C1(C)C (centres unmarked) [Example 28, N-({3-nitro-4-[(tetrahydro-2H-pyran-4-ylmethyl)amino]phenyl}sulfonyl)-4-(4-{2-[5,5,6-trimethylbicyclo[2.2.1]hept-2-en-2-yl]benzyl}piperazin-1-yl)benzamide]	29.6 nM
O=C(NS(=O)(=O)c1ccc(NCC2CCOCC2)c([N+](=O)[O-])c1)c1ccc(N2CCN(Cc3ccccc3-c3ccc(C(=O)NC4CCCCCCC4)o3)CC2)cc1 [Example 29, N-cyclooctyl-5-{2-[(4-{4-[({3-nitro-4-[(tetrahydro-2H-pyran-4-ylmethyl)amino]phenyl}sulfonyl)carbamoyl]phenyl}piperazin-1-yl)methyl]phenyl}-2-furamide]	354 nM
CC1(C)C2C=C(c3ccccc3CN3CCN(c4ccc(C(=O)NS(=O)(=O)c5ccc(NCC6CCOCC6)c([N+](=O)[O-])c5)cc4)CC3)C1(C(=O)NCc1ccccc1)CC2 (centres unmarked) [Example 30, N-benzyl-7,7-dimethyl-2-{2-[(4-{4-[({3-nitro-4-[(tetrahydro-2H-pyran-4-ylmethyl)amino]phenyl}sulfonyl)carbamoyl]phenyl}piperazin-1-yl)methyl]phenyl}bicyclo[2.2.1]hept-2-ene-1-carboxamide]	295 nM
CN1[C@@H]2CC[C@H]1CC(Nc1ccccc1CN1CCN(c3ccc(C(=O)NS(=O)(=O)c4ccc(NCC5CCOCC5)c([N+](=O)[O-])c4)cc3)CC1)C2 (stereo partly drawn) [Example 31, 4-[4-(2-{[(1R,5S)-8-methyl-8-azabicyclo[3.2.1]oct-3-yl]amino}benzyl)piperazin-1-yl]-N-({3-nitro-4-[(tetrahydro-2H-pyran-4-ylmethyl)amino]phenyl}sulfonyl)benzamide]	31.9 nM
C[C@@H]1[C@@H](Nc2ccccc2CN2CCN(c3ccc(C(=O)NS(=O)(=O)c4ccc(NCC5CCOCC5)c([N+](=O)[O-])c4)cc3)CC2)C[C@@H]2C[C@H]1C2(C)C [Example 32, N-({3-nitro-4-[(tetrahydro-2H-pyran-4-ylmethyl)amino]phenyl}sulfonyl)-4-[4-(2-{[(1R,2S,3S,5S)-2,6,6-trimethylbicyclo[3.1.1]hept-3-yl]amino}benzyl)piperazin-1-yl]benzamide]	91.9 nM
O=C(NS(=O)(=O)c1ccc(NCC2CCOCC2)c([N+](=O)[O-])c1)c1ccc(N2CCN(Cc3ccccc3N3CC4CCC(CC4)C3)CC2)cc1 [Example 33, 4-(4-{2-[3-azabicyclo[3.2.2]non-3-yl]benzyl}piperazin-1-yl)-N-({3-nitro-4-[(tetrahydro-2H-pyran-4-ylmethyl)amino]phenyl}sulfonyl)benzamide]	< 20 nM
O=C(NS(=O)(=O)c1ccc(NCC2CCOCC2)c([N+](=O)[O-])c1)c1ccc(N2CCN(Cc3ccccc3C3=CC4CC5CC(C4)CC3C5)CC2)cc1 [Example 34, N-({3-nitro-4-[(tetrahydro-2H-pyran-4-ylmethyl)amino]phenyl}sulfonyl)-4-(4-{2-[tricyclo[4.3.1.1^3,8]undec-4-en-4-yl]benzyl}piperazin-1-yl)benzamide]	47.7 nM
CC1(C)C2C=C(c3ccccc3CN3CCN(c4ccc(C(=O)NS(=O)(=O)c5ccc(NCC6CCOCC6)c([N+](=O)[O-])c5)cc4)CC3)C1(C(=O)Nc1ccccc1)CC2 (centres unmarked) [Example 35, 7,7-dimethyl-2-{2-[(4-{4-[({3-nitro-4-[(tetrahydro-2H-pyran-4-ylmethyl)amino]phenyl}sulfonyl)carbamoyl]phenyl}piperazin-1-yl)methyl]phenyl}-N-phenylbicyclo[2.2.1]hept-2-ene-1-carboxamide]	21.7 nM
C[C@@H]1[C@@H](NC(=O)C23CCC(C=C2c2ccccc2CN2CCN(c4ccc(C(=O)NS(=O)(=O)c5ccc(NCC6CCOCC6)c([N+](=O)[O-])c5)cc4)CC2)C3(C)C)C[C@H]2C[C@@H]1C2(C)C [Example 36, 7,7-dimethyl-2-{2-[(4-{4-[({3-nitro-4-[(tetrahydro-2H-pyran-4-ylmethyl)amino]phenyl}sulfonyl)carbamoyl]phenyl}piperazin-1-yl)methyl]phenyl}-N-[(1S,2S,3S,5R)-2,6,6-trimethylbicyclo[3.1.1]hept-3-yl]bicyclo[2.2.1]hept-2-ene-1-carboxamide]	121 nM
CC1(C)C2C=C(c3ccccc3CN3CCN(c4ccc(C(=O)NS(=O)(=O)c5ccc(NCC6CCOCC6)c([N+](=O)[O-])c5)cc4)CC3)C1(C(=O)NCC13CC4CC(CC(C4)C1)C3)CC2 (centres unmarked) [Example 37, N-(adamantan-1-ylmethyl)-7,7-dimethyl-2-{2-[(4-{4-[({3-nitro-4-[(tetrahydro-2H-pyran-4-ylmethyl)amino]phenyl}sulfonyl)carbamoyl]phenyl}piperazin-1-yl)methyl]phenyl}bicyclo[2.2.1]hept-2-ene-1-carboxamide]	165 nM
CC1(C)C2C=C(c3ccccc3CN3CCN(c4ccc(C(=O)NS(=O)(=O)c5ccc(NCC6CCOCC6)c([N+](=O)[O-])c5)cc4)CC3)C1(C(=O)NC1CC1)CC2 (centres unmarked) [Example 38, N-cyclopropyl-7,7-dimethyl-2-{2-[(4-{4-[({3-nitro-4-[(tetrahydro-2H-pyran-4-ylmethyl)amino]phenyl}sulfonyl)carbamoyl]phenyl}piperazin-1-yl)methyl]phenyl}bicyclo[2.2.1]hept-2-ene-1-carboxamide]	149 nM
CC1(C)C2C=C(c3ccccc3CN3CCN(c4ccc(C(=O)NS(=O)(=O)c5ccc(NCC6CCOCC6)c([N+](=O)[O-])c5)cc4)CC3)C1(C(=O)O)CC2 (centres unmarked) [Example 39, 7,7-dimethyl-2-{2-[(4-{4-[({3-nitro-4-[(tetrahydro-2H-pyran-4-ylmethyl)amino]phenyl}sulfonyl)carbamoyl]phenyl}piperazin-1-yl)methyl]phenyl}bicyclo[2.2.1]hept-2-ene-1-carboxylic Acid]	2910 nM
O=C(NS(=O)(=O)c1ccc(NCC2CCOCC2)c([N+](=O)[O-])c1)c1ccc(N2CCN(Cc3ccccc3-c3ccc(CN4C5CCCC4CC5)s3)CC2)cc1 [Example 40, 4-[4-(2-{5-[8-azabicyclo[3.2.1]oct-8-ylmethyl]-2-thienyl}benzyl)piperazin-1-yl]-N-({3-nitro-4-[(tetrahydro-2H-pyran-4-ylmethyl)amino]phenyl}sulfonyl)benzamide]	54.7 nM
O=C(NS(=O)(=O)c1ccc(NC2CCOCC2)c([N+](=O)[O-])c1)c1ccc(N2CCN(C(=O)C34CC5CC(CC(C5)C3)C4)CC2)cc1 [Example 41, 4-{4-[adamantan-1-ylcarbonyl]piperazin-1-yl}-N-{[3-nitro-4-(tetrahydro-2H-pyran-4-ylamino)phenyl]sulfonyl}benzamide]	5190 nM
O=C(NS(=O)(=O)c1ccc(NC2CCOCC2)c([N+](=O)[O-])c1)c1ccc(N2CCN(C(=O)C3C4CC5CC(C4)CC3C5)CC2)cc1 (centres unmarked) [Example 42, 4-{4-[adamantan-2-ylcarbonyl]piperazin-1-yl}-N-{[3-nitro-4-(tetrahydro-2H-pyran-4-ylamino)phenyl]sulfonyl}benzamide]	2480 nM
O=C(NS(=O)(=O)c1ccc(NC2CCOCC2)c([N+](=O)[O-])c1)c1ccc(N2CC3CC2CN3C(=O)C23CC4CC(CC(C4)C2)C3)cc1 (centres unmarked) [Example 43, 4-{5-[adamantan-1-ylcarbonyl]-2,5-diazabicyclo[2.2.1]hept-2-yl}-N-{[3-nitro-4-(tetrahydro-2H-pyran-4-ylamino)phenyl]sulfonyl}benzamide]	> 6250 nM
